Reference: article PMC10673624 (Current research in chemical biology, 2023)
Blank lines part the entries; values can stand above or below the compound they belong to.

Experiments:
[1] = test system: CLK; conditions: ref SGC chemical probe website (thesgc.org/chemical-probes/MU1210, /T3-CLK); cited from earlier work
[2] = test system: pSR and CLK2 localization, U118-MG and MDA-MB-435 cells; assay: Immunofluorescence of pSR and CLK2 localization; format: cell-based; conditions: 500 nM, over the course of 60 min
[3] = target: T1, HIPK1 (Homo sapiens, UniProt Q86Z02); assay: NanoBRET in-cell target engagement; format: cell-based
T1 sequence (Q86Z02 whole entry): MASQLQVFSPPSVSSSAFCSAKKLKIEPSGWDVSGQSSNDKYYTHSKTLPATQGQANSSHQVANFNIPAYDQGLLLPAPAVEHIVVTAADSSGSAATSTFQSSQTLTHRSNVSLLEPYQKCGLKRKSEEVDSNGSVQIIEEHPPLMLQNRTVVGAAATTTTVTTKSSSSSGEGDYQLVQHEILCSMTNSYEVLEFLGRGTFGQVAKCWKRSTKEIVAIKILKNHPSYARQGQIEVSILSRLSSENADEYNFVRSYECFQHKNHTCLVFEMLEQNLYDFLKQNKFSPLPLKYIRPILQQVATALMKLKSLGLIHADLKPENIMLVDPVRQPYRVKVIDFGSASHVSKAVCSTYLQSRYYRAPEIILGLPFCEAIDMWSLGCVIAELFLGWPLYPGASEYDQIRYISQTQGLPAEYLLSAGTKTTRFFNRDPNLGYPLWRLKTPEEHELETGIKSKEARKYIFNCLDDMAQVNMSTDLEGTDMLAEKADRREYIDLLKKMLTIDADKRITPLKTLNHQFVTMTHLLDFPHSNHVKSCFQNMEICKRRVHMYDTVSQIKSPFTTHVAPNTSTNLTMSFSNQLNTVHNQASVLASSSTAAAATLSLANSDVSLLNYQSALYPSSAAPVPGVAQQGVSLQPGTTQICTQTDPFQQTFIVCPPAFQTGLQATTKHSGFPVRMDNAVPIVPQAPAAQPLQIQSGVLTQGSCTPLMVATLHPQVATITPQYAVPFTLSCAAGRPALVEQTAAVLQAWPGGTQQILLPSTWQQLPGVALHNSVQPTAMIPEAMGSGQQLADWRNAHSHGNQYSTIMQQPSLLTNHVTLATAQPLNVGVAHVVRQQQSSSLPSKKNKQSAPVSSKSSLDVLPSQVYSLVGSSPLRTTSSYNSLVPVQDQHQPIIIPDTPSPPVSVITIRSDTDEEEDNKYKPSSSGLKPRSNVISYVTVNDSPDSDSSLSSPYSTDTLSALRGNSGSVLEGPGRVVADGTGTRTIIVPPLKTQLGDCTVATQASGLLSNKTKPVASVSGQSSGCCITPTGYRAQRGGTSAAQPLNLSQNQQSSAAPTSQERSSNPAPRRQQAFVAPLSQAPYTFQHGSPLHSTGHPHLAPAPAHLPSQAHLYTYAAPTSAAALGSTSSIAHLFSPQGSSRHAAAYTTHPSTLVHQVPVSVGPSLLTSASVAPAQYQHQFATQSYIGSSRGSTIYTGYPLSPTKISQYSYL

[4] = test system: BT-20; assay: Crystal violet cell proliferation; format: cell-based; conditions: BT-20, denoted concentrations, 7 days (Fig. 6a)
[5] = target: T2, CLK1 (Homo sapiens, UniProt P49759); assay: NanoBRET in-cell target engagement; format: cell-based
T2 sequence (P49759 whole entry): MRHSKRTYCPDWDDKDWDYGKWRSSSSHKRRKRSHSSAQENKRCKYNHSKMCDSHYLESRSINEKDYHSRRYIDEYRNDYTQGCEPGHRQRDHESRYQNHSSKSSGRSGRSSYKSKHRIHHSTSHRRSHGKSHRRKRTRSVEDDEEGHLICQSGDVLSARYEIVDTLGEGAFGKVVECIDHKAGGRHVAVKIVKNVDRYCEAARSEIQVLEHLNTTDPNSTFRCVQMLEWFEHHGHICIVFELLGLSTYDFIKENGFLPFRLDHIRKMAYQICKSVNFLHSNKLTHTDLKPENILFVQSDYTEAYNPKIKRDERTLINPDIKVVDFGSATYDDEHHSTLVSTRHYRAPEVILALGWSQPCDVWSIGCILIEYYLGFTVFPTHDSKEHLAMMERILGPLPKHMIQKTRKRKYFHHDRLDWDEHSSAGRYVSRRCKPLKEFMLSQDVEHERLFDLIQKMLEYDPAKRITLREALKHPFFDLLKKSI

[6] = target: T3, STK16 (Homo sapiens, UniProt O75716); assay: Eurofins enzymatic assay; format: biochemical
T3 sequence (O75716 whole entry): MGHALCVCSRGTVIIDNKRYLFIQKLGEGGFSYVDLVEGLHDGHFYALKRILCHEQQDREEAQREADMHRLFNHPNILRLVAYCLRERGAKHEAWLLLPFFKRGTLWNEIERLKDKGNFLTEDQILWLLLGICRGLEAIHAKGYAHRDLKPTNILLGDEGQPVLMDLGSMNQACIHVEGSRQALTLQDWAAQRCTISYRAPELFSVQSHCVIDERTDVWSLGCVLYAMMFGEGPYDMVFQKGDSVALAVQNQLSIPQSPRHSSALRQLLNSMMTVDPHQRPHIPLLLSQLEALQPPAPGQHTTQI

[7] = test system: SR phosphorylation (pSR), U118-MG cells; assay: Western blot of phosphorylated SR proteins; format: cell-based
[8] = test system: MDA-MB-435; assay: Crystal violet cell proliferation; format: cell-based; conditions: MDA-MB-435, denoted concentrations, 7 days (Fig. 6a)
[9] = target: T4, HIPK2 (Homo sapiens, UniProt Q9H2X6); assay: Eurofins enzymatic assay; format: biochemical
T4 sequence (Q9H2X6 whole entry): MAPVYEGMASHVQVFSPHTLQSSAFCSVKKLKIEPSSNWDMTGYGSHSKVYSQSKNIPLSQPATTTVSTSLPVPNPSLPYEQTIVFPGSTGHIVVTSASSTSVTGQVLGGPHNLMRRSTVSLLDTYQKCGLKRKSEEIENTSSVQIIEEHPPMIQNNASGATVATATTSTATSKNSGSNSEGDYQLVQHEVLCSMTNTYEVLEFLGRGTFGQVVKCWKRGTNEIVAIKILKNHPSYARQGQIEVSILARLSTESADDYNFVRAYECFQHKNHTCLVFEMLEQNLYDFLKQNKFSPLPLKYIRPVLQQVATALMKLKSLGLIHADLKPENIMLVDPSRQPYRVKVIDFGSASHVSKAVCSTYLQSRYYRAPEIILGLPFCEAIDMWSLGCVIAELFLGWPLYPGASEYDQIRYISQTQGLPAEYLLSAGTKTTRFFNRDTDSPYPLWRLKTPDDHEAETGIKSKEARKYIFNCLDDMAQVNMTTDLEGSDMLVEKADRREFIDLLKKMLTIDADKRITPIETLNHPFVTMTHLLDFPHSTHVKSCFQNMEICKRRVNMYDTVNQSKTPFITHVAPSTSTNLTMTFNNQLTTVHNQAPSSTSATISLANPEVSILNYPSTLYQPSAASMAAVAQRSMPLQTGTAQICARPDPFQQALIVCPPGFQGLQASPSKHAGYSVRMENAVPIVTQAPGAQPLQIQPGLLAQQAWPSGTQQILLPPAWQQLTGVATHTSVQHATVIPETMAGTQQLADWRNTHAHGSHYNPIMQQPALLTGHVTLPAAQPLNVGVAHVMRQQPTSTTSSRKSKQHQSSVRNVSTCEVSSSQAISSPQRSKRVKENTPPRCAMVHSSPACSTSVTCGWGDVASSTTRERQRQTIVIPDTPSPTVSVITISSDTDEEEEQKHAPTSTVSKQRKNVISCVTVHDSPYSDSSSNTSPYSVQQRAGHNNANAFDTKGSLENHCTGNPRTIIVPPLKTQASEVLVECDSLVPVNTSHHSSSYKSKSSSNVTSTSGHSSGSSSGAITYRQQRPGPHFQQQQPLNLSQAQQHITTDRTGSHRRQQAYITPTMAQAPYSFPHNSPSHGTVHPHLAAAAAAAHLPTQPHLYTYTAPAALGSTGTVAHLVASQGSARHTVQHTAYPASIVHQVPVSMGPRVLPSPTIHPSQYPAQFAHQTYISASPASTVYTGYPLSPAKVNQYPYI

[10] = test system: 100 different cancer cell lines; assay: ProQinase CL100 cancer cell line panel; format: cell-based; conditions: of 100 cell lines tested, CellTiter-Glo
[11] = target: T3, STK16; assay: NanoBRET in-cell target engagement; format: cell-based
[12] = target: T4, HIPK2; assay: NanoBRET in-cell target engagement; format: cell-based
[13] = target: ERK8 (MAPK15) (Homo sapiens, UniProt Q8TD08); assay: KINOMEscan scanMAX binding
Sequence of ERK8 (MAPK15) (Q8TD08 whole entry): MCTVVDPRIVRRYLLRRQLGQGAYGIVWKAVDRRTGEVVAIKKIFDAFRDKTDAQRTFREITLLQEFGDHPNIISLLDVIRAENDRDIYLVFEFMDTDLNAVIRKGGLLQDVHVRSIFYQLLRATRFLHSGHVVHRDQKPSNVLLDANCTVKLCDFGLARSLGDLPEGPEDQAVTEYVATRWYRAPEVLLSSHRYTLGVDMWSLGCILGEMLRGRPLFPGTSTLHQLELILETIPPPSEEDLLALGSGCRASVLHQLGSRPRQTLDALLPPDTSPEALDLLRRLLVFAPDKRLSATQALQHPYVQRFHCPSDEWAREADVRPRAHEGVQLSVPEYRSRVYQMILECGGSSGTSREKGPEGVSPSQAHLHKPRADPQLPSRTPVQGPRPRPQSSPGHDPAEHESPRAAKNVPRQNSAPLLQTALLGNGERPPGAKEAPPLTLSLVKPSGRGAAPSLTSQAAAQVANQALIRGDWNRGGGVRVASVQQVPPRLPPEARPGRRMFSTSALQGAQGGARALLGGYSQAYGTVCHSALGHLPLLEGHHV

[14] = test system: U118-MG; assay: Crystal violet cell proliferation; format: cell-based; conditions: denoted concentrations, 7 days (Fig. 6a)
[15] = target: T1, HIPK1; assay: Eurofins enzymatic assay; format: biochemical
[16] = test system: CLK2 or pSR distribution, BT-20; assay: Immunofluorescence of pSR and CLK2 localization; format: cell-based
[17] = test system: 403 wildtype (WT) human as well as several mutant and nonhuman kinases; format: binding; conditions: no kinase bound below this PoC
[18] = target: T2, CLK1; assay: Eurofins enzymatic assay; format: biochemical
[19] = target: CLK3 (Homo sapiens, UniProt P49761); assay: Eurofins enzymatic assay; format: biochemical
[20] = target: T5, CLK2 (Homo sapiens, UniProt P49760); assay: Eurofins enzymatic assay; format: biochemical
T5 sequence (P49760 whole entry): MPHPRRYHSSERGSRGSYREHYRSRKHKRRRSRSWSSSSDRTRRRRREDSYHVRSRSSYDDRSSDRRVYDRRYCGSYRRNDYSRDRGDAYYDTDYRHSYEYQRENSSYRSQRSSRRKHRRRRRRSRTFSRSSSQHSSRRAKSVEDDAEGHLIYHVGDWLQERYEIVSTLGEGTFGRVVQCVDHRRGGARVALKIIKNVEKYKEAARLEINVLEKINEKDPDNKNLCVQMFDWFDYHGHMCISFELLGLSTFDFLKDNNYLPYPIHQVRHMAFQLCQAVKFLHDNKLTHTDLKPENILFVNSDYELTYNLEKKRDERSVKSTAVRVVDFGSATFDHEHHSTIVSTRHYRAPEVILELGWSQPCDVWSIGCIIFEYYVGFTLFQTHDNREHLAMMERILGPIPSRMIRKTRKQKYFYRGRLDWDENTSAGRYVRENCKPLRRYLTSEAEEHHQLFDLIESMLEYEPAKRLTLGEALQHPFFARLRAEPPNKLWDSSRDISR

[21] = target: T5, CLK2; assay: NanoBRET in-cell target engagement; format: cell-based
[22] = target: T5, CLK2; assay: Luceome KinaseSeeker binding; conditions: read-out: KinaseSeeker activity remaining
[23] = target: T6, CLK4 (Homo sapiens, UniProt Q9HAZ1); assay: Eurofins enzymatic assay; format: biochemical
T6 sequence (Q9HAZ1 whole entry): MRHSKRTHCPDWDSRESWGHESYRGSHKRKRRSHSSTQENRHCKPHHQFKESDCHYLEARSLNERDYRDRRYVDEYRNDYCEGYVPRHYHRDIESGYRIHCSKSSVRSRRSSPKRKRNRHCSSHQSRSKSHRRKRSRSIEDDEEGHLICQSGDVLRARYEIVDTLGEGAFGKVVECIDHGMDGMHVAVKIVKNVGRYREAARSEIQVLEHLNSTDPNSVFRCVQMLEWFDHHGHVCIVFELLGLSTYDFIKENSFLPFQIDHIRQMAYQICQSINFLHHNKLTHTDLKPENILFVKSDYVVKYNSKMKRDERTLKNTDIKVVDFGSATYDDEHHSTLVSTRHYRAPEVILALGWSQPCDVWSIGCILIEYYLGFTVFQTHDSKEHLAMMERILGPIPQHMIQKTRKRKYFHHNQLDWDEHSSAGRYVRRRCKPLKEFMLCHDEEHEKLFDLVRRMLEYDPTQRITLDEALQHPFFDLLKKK

[24] = target: T2, CLK1; assay: Luceome KinaseSeeker binding; conditions: read-out: KinaseSeeker activity remaining
[25] = target: T6, CLK4; assay: NanoBRET in-cell target engagement; format: cell-based
[26] = target: CLK4; assay: Luceome KinaseSeeker binding; conditions: CLK4, 1 μM

Structure (SMILES): Cn1cc(-c2ccc3occ(-c4cccc(-c5ccncc5)c4)c3n2)cn1 [Compound 1, reference compound]
- Activity in the CLK nanoBRET assays [1]: active
- Effect on pSR and CLK2 localization [2]: did not show any effect on pSR or CLK2 localization

- IC50 [3]: > 10000 nM
- IC50 ([5]; Cellular IC50 (NanoBRET), CLK1, HEK293, Tracer K5): 154 ± 50 nM
- IC50 [6]: 49 nM
- IC50 [9]: 42 nM
- Cell lines with IC50 for inhibiting proliferation <250 nM [10]: 27/100
- NanoBRET binding (in words) [11]: only partial inhibition
- IC50 [12]: > 10000 nM
- IC50 [15]: 50 nM
Structure (SMILES): COc1cc(Nc2nccc(-c3cnn4nc(OC)ccc34)n2)cc(C(F)(F)F)c1 [SGC-CLK-1, N-(3-methoxy-5-(trifluoromethyl)phenyl)-4-(6-methoxypyrazolo[1,5-b]pyridazin-3-yl) pyrimidin-2-amine]
- Effect on cell growth (crystal violet) [4]: no growth change
- Change in SR phosphorylation (pSR) ([7]; 1 μM, highest treatment condition): did not detect significant pSR changes
- Change in SR phosphorylation (pSR) ([7]; 5 μM, 30 min post treatment, U118-MG): decrease in SR phosphorylation
- Effect on cell growth (crystal violet) [8]: dose-dependent decrease in the growth
- % Control (1 μM) ([13]; ERK8 (MAPK15), 1 μM): 21%
- remaining binding at 1 µM ([13]; read-out: % Control (1 μM), ERK8 (MAPK15), 1 μM): < 35%
- Effect on cell growth (crystal violet) [14]: dose-dependent decrease in the growth
- Effect on pSR and CLK2 localization [2]: significant changes in the cellular distribution of both pSRs and CLK2
- Effect on CLK2 or pSR distribution [16]: did not observe a difference in CLK2 or pSR distribution

- PoC of any kinase in the KINOMEscan panel [17]: ≥ 45
- NanoBRET activity (in words) ([5]; CLK1): inactive
- Enzymatic inhibition (in words) [18]: no inhibition
- Enzymatic inhibition (in words) [19]: no inhibition
- Enzymatic inhibition (in words) [20]: no inhibition
- NanoBRET activity (in words) [21]: inactive
- remaining activity at 1 µM [22]: 100%
- Enzymatic inhibition (in words) [23]: no inhibition
- remaining activity at 1 µM [24]: 100%
- NanoBRET activity (in words) [25]: inactive
- KinaseSeeker activity remaining [26]: 100%
Structure (SMILES): CCOc1ccc2c(-c3cc(C)nc(Nc4cc(OC)cc(C(F)(F)F)c4)n3)cnn2n1 [SGC-CLK-1N, 4-(6-ethoxypyrazolo [1,5-b]pyridazin-3-yl)-N-(3-methoxy-5-(trifluoromethyl)phenyl)-6-methylpyrimidin-2-amine]
- Effect on cell growth (crystal violet) [8]: little effect
- Effect on cell growth (crystal violet) [14]: little effect
- Effect on CLK2 or pSR distribution [16]: did not observe a difference in CLK2 or pSR distribution
